Experimental findings from patent US5843925A, “Methods for inhibiting angiogenesis, proliferation of endothelial or tumor cells and tumor growth” (American Cyanamid Company, priority 1994, dated 1998) are described below.

What all share (type): cell-based
One test relates to HTB 161. The experiment in a line: Antiproliferative activity in human tumor cell lines (HTB 161). The protocol: (§1) PROTOCOLS 1, 2, and 3 are described in greater detail hereinbelow. In general, according to PROTOCOLS 1 and 2, the target ABAE and/or Human Tumor cells are exposed to the compound of Formula I for 48 hours. PROTOCOL 3 exposes ABAE cells to the compounds for 4 days. A detailed description of the protocol is as follows:
(§2) The antiproliferative activity of the compounds of Formula I of the present invention is evaluated in a panel comprised of human tumor cell lines and an adult bovine aortic endothelial cell line (ABAE). The human tumor cell lines are from
(§3) Cultures are renewed after 20 passages with cells from a fresh stock of batch-frozen early passage cells. Cell lines are routinely checked for mycoplasma contamination (Genprobe). In a laminar flow hood, cells (1-5×10^4) are plated into 96-well microtiter plates in a volume of 0.1 ml/well with a bulk microtiter dispenser (Denley). […] Compounds are added using a Tomtec dispenser which simultaneously dispenses from one 96-well plate, containing the drug dilutions, to the plates containing the cells. After two days of continuous drug exposure, 50% cold trichloroacetic acid (TCA) is added to 10% final concentration to fix the cells, and after 60 minutes at 4° C., the TCA is aspirated and the plates are washed 5 times with deionized water using a microtiter plate washer. […] A 0.4% solution of the dye, sulforhodamine B, in […] is added to the plates, and the plates are washed 5 times with 1% glacial acetic acid using the automatic plate washed. The bound stain is solubilized with 0.1 ml of 10 mM Tris base. The optical densities are read from an automatic spectrophotometric plate reader (Dynatech) directly to a main frame computer (VAX 8600).
(§4) Positive controls, that include standard chemotherapeutic drugs (i.e., adriamycin, cisplatin, etc.), are included in every experiment.
(§5) Background optical density measurements (complete media-cells, and complete media+drug-cells) are automatically subtracted from the appropriate control and test wells. Mean values and standard errors are determined from duplicate wells. A measure is also made of the optical density at time when the drugs are added. The number of cells after treatment (P), as % of control, is calculated for every concentration of drug, as follows: [formula] wherein: T is optical density measurement for treated cells after 48 hours;
(§6) C is optical density measurement for untreated cells after 48 hours;
(§7) Co is optical density measurement for cells at the time of drug addition.
(§8) IC50 of growth inhibition is calculated from the sets of P values using the RS-1 data package (BBN Software).
(§9) Antiproliferative Activity in Human Tumor Cell Lines
(§10) The antiproliferative activity of the compounds of Formula I is evaluated in the panel comprised of human tumor cell lines as listed in PROTOCOL 1. This assay is a slight modification of PROTOCOL 1. The modifications include:
(§11) 1) each concentration for each compound is tested in a single well;
(§12) 2) compounds are tested at 20, 4, 0.8, 0.16 microgram/ml and additionally in some experiments at 100 and 0.32 microgram/ml;
(§13) 3) samples are pipetted into a 96-well plate for each of the cell lines by a Beckman Biomek 1000 SL robot;
(§14) 4) after fixing with TCA each well is washed with 0.35 ml distilled water twice, not five times;
(§15) 5) after staining with sulforhodamine B each well is washed 3 times, not five times;
(§16) 6) the growth inhibition (I) as % of control, is calculated using the RS-1 data package (BBN Software), for every concentration of drug, as follows: [formula] wherein: T is optical density measurement for treated cells after 48 hours;
(§17) 7) IC50 of growth inhibition is determined graphically from dose response curves, as is known in the art.

The test system of a further test is A2780S. The test can be described thus: Antiproliferative activity in human tumor cell lines (A2780S). The note with it: A2780S ovarian tumor cell line. The protocol: as §1, §2, §3, §4, §5, §6, §7, §8, §9, §10, §11, §12, §13, §14, §15, §16, §17
In another test the test system is MIP. The experiment in a line: Antiproliferative activity in human tumor cell lines (MIP). The note with it: MIP colon tumor cell line. The protocol:
as §1, §2
All cell lines are maintained in log phase in RPMI 1640 media, supplemented with 5% fetal calf serum, penicillin/streptomycin and 2 mM L-glutamine. Cultures are renewed after 20 passages with cells from a fresh stock of batch-frozen early passage cells. Cell lines are routinely checked for mycoplasma contamination (Genprobe). In a laminar flow hood, cells (1-5×10^4) are plated into 96-well microtiter plates in a volume of 0.1 ml/well with a bulk microtiter dispenser (Denley). […] At this concentration, dimethylsulfoxide has no effect on cell growth. Compounds are added using a Tomtec dispenser which simultaneously dispenses from one 96-well plate, containing the drug dilutions, to the plates containing the cells. After two days of continuous drug exposure, 50% cold trichloroacetic acid (TCA) is added to 10% final concentration to fix the cells, and after 60 minutes at 4° C., the TCA is aspirated and the plates are washed 5 times with deionized water using a microtiter plate washer. The number of cells on the plate are quantitated using a protein dye-binding assay (Monks et al., 1991). A 0.4% solution of the dye, sulforhodamine B, in glacial acetic acid is added to the plates, and the plates are washed 5 times with 1% glacial acetic acid using the automatic plate washed. The bound stain is solubilized with 0.1 ml of 10 mM Tris base. The optical densities are read from an automatic spectrophotometric plate reader (Dynatech) directly to a main frame computer (VAX 8600).
as §4, §5, §6, §7, §8, §9, §10, §11, §12, §13, §14, §15
6) the growth inhibition (I) as % of control, is calculated using the RS-1 data package (BBN Software), for every concentration of drug, as follows: [formula] wherein: T is optical density measurement for treated cells after 48 hours; […]

For another test, the system named is A2780/DDP. The test can be described thus: Antiproliferative activity in human tumor cell lines (A2780/DDP). The note with it: A2780/DDP ovarian tumor cell line. The protocol:
as §1, §2, §3, §4, §5, §6, §7, §8, §9, §10, §11, §12, §13, §14, §15, §16, §17

Counter-ions that a name gives are not always drawn.

For `CN(C)CC(=O)Nc1cc(N(C)C)c2c(c1O)C(=O)C1=C(O)[C@]3(O)C(=O)C(C(N)=O)=C(O)[C@@H](N(C)C)C3CC1C2` (stereo partly drawn) [Example 2, [4S-(4a,12aa-1-4,7-Bis(dimethylamino)-9-[[(dimethylamino)acetyl]amino]]-1,4,,4a,5,5a,6,11,12a-octahvdro-3,10,12,12a-tetrahydroxy-1,11-dioxo-2-napththacenecarboxamidedihydrochloride], the IC50 with HTB 161 came out at 6 µg/mL; with A2780S, 6.5 µg/mL; in the test on MIP it was 4.6 µg/mL; with A2780/DDP it was 7 µg/mL.

With `CCCCCCNCC(=O)Nc1cc(N(C)C)c2c(c1O)C(=O)C1=C(O)[C@]3(O)C(=O)C(C(N)=O)=C(O)[C@@H](N(C)C)C3CC1C2` (stereo partly drawn) [Example 4, [4S-(4α,12aα)]-4,7-Bis(dimethylamino)-9-[(hexylamino)acetyl]amino]-1,4,4a,5,5a,6,11,12a-octahydro-3,10,12,12a-tetrahydroxy-1,11-dioxo-2-naphthacenecarboxamide dihydrochloride], the IC50 in the test on HTB 161 turned out to be 2 µg/mL; in the test on A2780S, 2.3 µg/mL; in the test with MIP it was 2.8 µg/mL; with A2780/DDP it was 2.3 µg/mL.

Regarding `CCCCCCCNCC(=O)Nc1cc(N(C)C)c2c(c1O)C(=O)C1=C(O)[C@]3(O)C(=O)C(C(N)=O)=C(O)[C@@H](N(C)C)C3CC1C2` (stereo partly drawn) [Example 5, [4S-(4α,12aα)]-4,7-Bis(dimethylamino)-9-[[(heptylamino)acetyl]amino]-1,4,4a,5,5a,6,11,12a-octahydro-3,10,12,12a-tetrahydroxy-1,11-dioxo-2-naphthacenecarboxamide dihydrochloride], the IC50 turned out to be 2.3 µg/mL with HTB 161, 2.5 µg/mL in the test on A2780S, 3.2 µg/mL in the test on MIP and 2.5 µg/mL with A2780/DDP.
